Here are results for three compounds from patent US20240352536A1, “Assay for Predicting Risk of Capecitabine-Induced Toxicity in a Subject” (Oxford University Innovation Ltd., priority 2021, published 2024).

For data set [1] the following is noted: cited from earlier work.
In data set [2] the target is T1, dihydropyrimidine dehydrogenase (DPYD) (Homo sapiens, UniProt Q12882).
T1 construct: degraded in the liver by dihydropyrimidine dehydrogenase (DPYD); host or cells: liver (in vivo, endogenous enzyme)
T1 sequence (Q12882 4-1025): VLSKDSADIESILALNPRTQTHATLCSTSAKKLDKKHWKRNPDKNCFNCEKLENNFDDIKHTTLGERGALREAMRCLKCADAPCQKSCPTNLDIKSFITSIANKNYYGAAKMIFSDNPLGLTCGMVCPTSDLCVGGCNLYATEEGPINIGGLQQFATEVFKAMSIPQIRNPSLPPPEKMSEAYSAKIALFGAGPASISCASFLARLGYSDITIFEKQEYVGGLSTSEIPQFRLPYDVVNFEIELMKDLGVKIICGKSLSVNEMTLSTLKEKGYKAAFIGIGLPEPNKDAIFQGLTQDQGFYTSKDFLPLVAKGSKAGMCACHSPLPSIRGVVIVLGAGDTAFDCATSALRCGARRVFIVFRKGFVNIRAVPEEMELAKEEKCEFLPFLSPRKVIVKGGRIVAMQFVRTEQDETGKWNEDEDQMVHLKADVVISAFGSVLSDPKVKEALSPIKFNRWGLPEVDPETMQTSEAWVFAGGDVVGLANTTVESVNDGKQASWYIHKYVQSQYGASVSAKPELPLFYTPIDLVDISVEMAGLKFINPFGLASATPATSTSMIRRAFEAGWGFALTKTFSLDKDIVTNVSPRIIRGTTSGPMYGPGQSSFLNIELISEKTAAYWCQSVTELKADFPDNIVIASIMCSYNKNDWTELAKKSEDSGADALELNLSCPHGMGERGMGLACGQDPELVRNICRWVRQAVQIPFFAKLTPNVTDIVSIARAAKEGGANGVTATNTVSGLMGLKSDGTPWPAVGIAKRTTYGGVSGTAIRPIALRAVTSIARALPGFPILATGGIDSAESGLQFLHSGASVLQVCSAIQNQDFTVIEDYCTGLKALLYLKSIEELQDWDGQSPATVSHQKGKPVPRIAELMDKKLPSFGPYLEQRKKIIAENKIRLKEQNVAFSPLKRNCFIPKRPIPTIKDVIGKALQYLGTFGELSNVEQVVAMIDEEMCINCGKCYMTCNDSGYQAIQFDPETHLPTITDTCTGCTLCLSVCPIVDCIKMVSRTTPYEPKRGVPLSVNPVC
Particulars: cited from earlier work.

Data set [3] is described as follows: QUASAR2 trial: adverse events graded after each treatment cycle with NCI CTCAE version 3.0. It is filed as in vivo, human. As for the experimental part: The QUASAR2 study (http://www.octo-oxford.org.uk/alltrials/infollowup/q2.html; http://www.controlled-trials.com/ISRCTN45133151/) is a phase III randomised controlled trial of capecitabine (Xeloda) (1250 mg/m2 twice daily d1-14 every 3 weeks, total of 8 cycles)+/−bevacizumab (7.5 mg/kg every three weeks) following resection of stage II/III CRC. Patients were entered into the study between July 2005 and December 2011 at 123 UK and 81 non-UK sites. Of 1119 patients with blood collected as of July 2010, 1046 were selected for study based on availability of clinical data and informed consent.
Adverse events were graded following each treatment cycle using the NCI Common Toxicity Criteria for Adverse Events (CTCAE) version 3.0. Common capecitabine-induced toxicities—diarrhoea, nausea and vomiting, mucositis/stomatitis, neutropaenia, thrombocytopaenia, and HFS—were analysed individually and also in combination as “global” toxicity. Adverse events were categorised as low (CTCAE grade 0/1/2) and high (CTCAE grade 3/4/5 at any treatment cycle). Hypertension and proteinuria were clearly related to bevacizumab (˜10-fold higher incidence) and were not included in the analysis.
Genome wide SNP genotypes and per treatment cycle toxicity data was available for 930 patients with stage II and III colorectal cancer treated with capecitabine in the QUASAR2 trial. […] Genotype data was imputed using IMPUTE2 and the UK10K and 1000 genomes merged reference panels. Common Terminology Criteria for Adverse Events (CTCAE) v3.0 was used to grade toxicity events. Patients with ≥grade 3 toxicities in the first two treatment cycles and across all cycles were coded as cases for analysis. Binary coded variables were generated for capecitabine-induced toxicities: diarrhoea, haematological, hand-foot syndrome, mucositis and vomiting. The mucositis toxicity variable captured cases with mucositis and/or stomatitis and haematological toxicity consisted of neutropenia and/or thrombocytopenia cases. A global toxicity phenotype was also analysed with cases having any grade 3 event of one of the aforementioned toxicities. The study was powered at 80% to detect variants with MAF>10% having effect sizes≥2. Association testing was performed using SNPTEST v2.5. The two QUASAR2 trial arms (capecitabine alone and capecitabine plus bevacizumab) were analysed separately and then meta-analysed using META v1.7. […] Gene annotation of the outputs was performed using Variant Effect Predictor (VEP) and ANNOVAR to determine the impact of each variant and distance to the nearest gene. Top independent SNPs were identified from multi-SNP-based conditional and joint association (COJO) analysis using Genome-wide Complex Trait Analysis (GCTA). V1.93.2. Receiver operator curve (ROC) analysis was performed in statistical software R.

Where [4] appears, read: early onset, Cycles 1 & 2 (n = 930), QUASAR 2.

Turning to `O=c1[nH]cc(F)c(=O)[nH]1` [5-FU, 5-fluorouracil], the “mortality (Grade 5, CTCAE version 3.0) associated with use” value in data set [1] (overall) is reported as 0.5-1.0%. Also, the “patients who suffer substantial toxicities (Grade 3 or above, CTCAE version 3.0)” value in data set [1] (patients administered 5-FU-based therapy) is on record as 10-30%. Moreover, the fatality rate result in data set [1] (patients with colorectal cancer, serious toxicities from 5-FU) is reported as “approximately 1%”. Besides, the “share of patients who experienced serious (CTCAE≥grade 3) toxicities” value in data set [1] (patients with colorectal cancer) is reported as “Approximately a third”. Further, the “share of drug degraded in the liver by DPYD prior to activation” value in data set [2] is on record as about 80%.
Regarding `CCCCCOC(=O)Nc1nc(=O)n(C2OC(C)C(O)C2O)cc1F` (centres unmarked) [capecitabine, pentyl [1-(3,4-dihydroxy-5-methyltetrahydrofuran-2-yl)-5-fluoro-2-oxo-1H-pyrimidin-4-yl]carbamate], in data set [1] (capecitabine patients), the “share of patients who suffer dose-limiting levels of drug-induced adverse events” value was “approximately one third”. Further, the “mortality from rapid onset of toxicity relative to infusional and bolus 5-FU regimens (0.5% to 2%)” value in data set [1] (capecitabine schedules) is listed as “about half that number”. Besides, in data set [3] (setting [4]), the “Diarrhoea, Grade 0-2 (%)” value amounted to 92.9%; the “Diarrhoea, Grade 3-4 (%)” value was determined as 6.9%; the “Global toxicity, Grade 0-2 (%)” value turned out to be 84.6%; the “Global toxicity, Grade 3-4 (%)” value was found to be 15.3%. In addition, in data set [3] (setting [4]), the “Haematological toxicity, Grade 0-2 (%)” value is 98.4%; the “Haematological toxicity, Grade 3-4 (%)” value was 1.3%; the “Hand-foot syndrome, Grade 0-2 (%)” value amounted to 91.4%; the “Hand-foot syndrome, Grade 3-4 (%)” value is listed as 8.3%. In addition, in data set [3] (setting [4]), the “Mucositis, Grade 0-2 (%)” value was determined as 98.7%; the “Mucositis, Grade 3-4 (%)” value came to 1.1%; the “Vomiting, Grade 0-2 (%)” value turned out to be 98.7%; the “Vomiting, Grade 3-4 (%)” value was 0.9%.
On to “bevacizumab: given with capecitabine in one QUASAR2 arm (7.5 mg/kg every three weeks)”, for which, in data set [3] (QUASAR2, capecitabine plus bevacizumab arm versus capecitabine alone), the “higher incidence of hypertension and proteinuria” value was about 10 fold.
